Tests used:
[1] = Cyclic voltammetry (CV) in dichloromethane; format: physicochemical; settings: n-BuN4PF6 0.1 M, silver/silver chloride reference electrode, 100 mV/sec
Description: (3) Measurement of CV (Cyclic Voltammetry)
CV was measured using dichloromethane as a solvent, tetrabutylammonium hexafluorophosphate (n-BuN4PF6, 0.1 M) as a supporting salt, platinum wires as a working electrode and a counter electrode, and a silver/sliver chloride electrode as a reference electrode, and sweeping the electric potential at a rate of 100 mV/sec.

[2] = Solubility to chloroform (saturated chloroform solutions); format: physicochemical; settings: mass percent concentration of saturated chloroform solution
Description: (1) Measurement of Solubility
Solubility was measured using chloroform as a solvent.

Row | first half-wave reduction potential [1] [V] | second half-wave reduction potential [1] [V] | Solubility to Chloroform [2] [w/w %] | SMILES
1 | 0.15 | −0.14 |  | CCCCCCCCc1cc2c(cc(CCCCCCCC)c3cc(=C(C#N)C#N)sc32)c2sc(=C(C#N)C#N)cc12 [Compound 110]
2 | 0.15 | −0.14 |  | CCCCCCCCCCCCCCCCc1cc2c(cc(CCCCCCCCCCCCCCCC)c3cc(=C(C#N)C#N)sc32)c2sc(=C(C#N)C#N)cc12 [Compound 114]
3 | 0.15 | −0.14 | 0.53 | CCCCC(CC)Cc1cc2c(cc(CC(CC)CCCC)c3cc(=C(C#N)C#N)sc32)c2sc(=C(C#N)C#N)cc12 (stereo not shown) [Compound 119]
4 | 0.15 | −0.14 | 0.20 | CCCCCCCCCCCCc1cc2c(cc(CCCCCCCCCCCC)c3cc(=C(C#N)C#N)sc32)c2sc(=C(C#N)C#N)cc12 [Compound 112]

From US9859508B2, “Condensed polycyclic aromatic compound and use thereof” (Nippon Kayaku Kabushiki Kaisha, priority 2013, dated 2018)
